Paper PMC6745035, “Novel tetrahydroacridine derivatives with iodobenzoic moieties induce G0/G1 cell cycle arrest and apoptosis in A549 non-small lung cancer and HT-29 colorectal cancer cells” (Molecular and Cellular Biochemistry, 2019)

Tests used:
[1] = system: EA.hy926 cells; experiment: MTT cytotoxicity assay, EA.hy926; format: cell-based, human; conditions: Homo sapiens, EA.hy 926; MTT, 24 h incubation; read-out: IC50 µM ± SD against EA.hy926
Description: The EA.hy926 cells (the human umbilical vein, somatic cell hybrid) (American Type Culture Collection) are immortalized human umbilical vein endothelial cells. They have morphological, phenotypic and functional characteristics of human endothelial cells, without the limited lifespan. This cell line has been considered as a good model for anticancer drug screening and was chosen to evaluate the endothelial cytotoxicity of novel compounds.
The MTT assay was used to evaluate cell metabolic activity. The test principle is based on the determination of cell viability by measuring the metabolic activity in mitochondria. Enzymatically active mitochondria reduce the water-soluble MTT (3-(4,5-dimethylthiazol-2-yl)-2,5 diphenyltetrazoliumbromide) to blue–violet insoluble formazan. The number of viability cells is proportional to the colour intensity determined by photometric measurements (an analytical wavelength 570 nm) after dissolving the formazan in Dimethylsulfoxide (DMSO) (Serva) and Sorensen’s glycine buffer. MTT (Sigma Aldrich) was dissolved in Phosphate Buffered Saline (PBS) (PAN-Biotech) at a concentration of 0.5 mg/mL. Sorensen’s glycine buffer is made of 0.1 M glycine and 0.1 M NaCl, at pH 10.5. Studied compounds were dissolved in DMSO in order to receive stock solutions.
For the assay, cells were seeded into 96-well plates at density 10^4 cells per well and cultured for 24 h at 37 °C and 5% CO2. Then medium was removed, and cells were exposed to the 100 µL of the compound solutions over a range of concentrations (final DMSO concentration was below 0.2%) or nothing but culture medium (blank control). Pure DMSO was used as a positive control. After 24 h of incubation with the compound solutions, medium was removed and 50 µL of the MTT solution was added to each well and incubated in the dark for additional 2 h at 37 °C. Then the MTT solution was carefully removed and 100 µL of DMSO was added. Plates were incubated for 10 min at room temperature. Finally, 5 µL of Sorensen Buffer was added to each well. Plate was swayed, and the absorbance was measured by using microplate reader (Synergy H1, BioTek, Winooski, VT, USA) at a wavelength of 570 nm. The cell viability was expressed as a percentage of the control values (blank). The experiments were done in triplicate.

[2] = system: A549 cells; experiment: Apoptosis assay by annexin-V/PI double staining, A549; format: cell-based, human; conditions: A549, 24 h, compound at 2xIC50 (1i 29.74 µM); control 7.80%
Protocol: Compounds were added to the cells and further incubated for 24 h. After treatment, monolayer and supernatant cells were harvested, washed with PBS and centrifuged (monolayer at 1200 rpm for 10 min, supernatant at 3500 rpm for 10 min). Then, cells were re-suspended in binding buffer and stained with 2 µL of Annexin-V and […] of PI (ANNEXIN-V—FITC Apoptosis Detection Kit, Immunostep) in the dark for 10 min at room temperature. Cells were analysed by BD Accuri C6 Flow Cytometry (Becton–Dickinson). Etoposide (Calbiochem) was used as a reference drug. Experiments were done in triplicates.

[3] = system: γ-H2AX; experiment: Western blot of γ-H2AX, A549; format: cell-based, human; conditions: A549, 24 h, IC50 and 1/2IC50
Protocol: Then, cells were treated with chosen compounds. After 24 h of incubation, monolayer and supernatant were harvested and washed in cold PBS. Cells were centrifuged—monolayer at 1200 rpm for 10 min, supernatant 3500 rpm for 10 min. Pellets were dissolved in RIPA Lysis and Extraction buffer (Bio-Rad) containing Phosphatase Inhibitor Cocktail 3 (Sigma Aldrich) and Protease Inhibitor Cocktail (Sigma Aldrich). Samples were incubated in ice for 30 min and mixed every 10 min. Then, samples were centrifuged at 12,000 rpm for 25 min. Protein concentration in supernatants was measured in triplicate using a Protein Assay (Bio-Rad). Proteins were separated by SDS–polyacrylamide gel electrophoresis. Separating and stacking gels were made of different ratios of water, Tris–HCl pH 6.8 and pH 8.8, 10% SDS (Sigma Aldrich), Acrylamide/bis-acrylamide (Sigma Aldrich), 10% APS (Sigma Aldrich), TEMED (Sigma Aldrich). 7.5% gels were prepared for analysis PARP-1, whereas 12% gels prepared for γ-H2AX. After separation on SDS–polyacrylamide gels, proteins were electroblotted on nitrocellulose membrane in Transfer Buffer (Glycine, Tris, Methanol). Membranes were washed in TBS/0.1% or 0.05% Tween20 solution and blocked in Tris-buffered saline with 5% of non-fated dried milk for 1 h. Membranes were then incubated overnight with primary antibodies—anti-PARP-1 (Cell Signaling Technology), anti-γ-H2A.X (Cell Signaling Technology), anti-β-actin (Cell Signaling Technology) in cold room (6 °C). After incubation, membranes well washed with TBS/Tween solution and blocked with and horseradish peroxidase-conjugated secondary antibodies (Bio-Rad) for 1 h in cold room. Protein bands were visualized using ECL™ Prime Western Blotting Detection Reagents (Sigma Aldrich) Healthcare and Carestream Kodak autoradiography GBX fixer/replenisher (Sigma Aldrich) with Developer and Replenisher (Carestream) in the dark room. Results were obtained on Autoradiography Film (Santa Cruz Biotechnology). Densitometric analysis was performed by using a software program (ImageJ). […]

[4] = target: T1, hyaluronidase from bovine testes Type I-S (Bos taurus, UniProt Q2YDK3); experiment: Hyaluronidase inhibition assay (turbidimetric); format: biochemical; conditions: read-out: HYAL IC50 ± SD
T1 construct: purchased Sigma Aldrich; host or cells: bovine testes (tissue-derived preparation)
T1 sequence (Q2YDK3 36-553): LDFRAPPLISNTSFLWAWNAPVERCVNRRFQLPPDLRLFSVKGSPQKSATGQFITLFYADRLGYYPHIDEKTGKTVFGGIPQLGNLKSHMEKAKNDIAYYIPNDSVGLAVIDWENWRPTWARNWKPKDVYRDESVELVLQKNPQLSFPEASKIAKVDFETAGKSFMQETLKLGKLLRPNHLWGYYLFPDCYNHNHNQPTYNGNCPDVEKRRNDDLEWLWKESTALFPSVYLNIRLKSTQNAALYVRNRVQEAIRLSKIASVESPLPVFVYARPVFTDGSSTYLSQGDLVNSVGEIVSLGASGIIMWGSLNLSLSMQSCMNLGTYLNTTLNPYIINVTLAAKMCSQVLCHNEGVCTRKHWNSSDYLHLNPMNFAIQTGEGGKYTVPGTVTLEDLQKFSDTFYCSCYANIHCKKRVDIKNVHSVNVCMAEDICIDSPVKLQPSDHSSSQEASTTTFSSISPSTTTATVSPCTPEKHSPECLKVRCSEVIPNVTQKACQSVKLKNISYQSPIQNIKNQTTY

[5] = system: A549 cells; experiment: Reactive oxygen species assay (DCFH-DA), A549; format: cell-based, human; conditions: compound at IC50 24 h plus H2O2, H2O2 only 1.86-fold
Protocol: After incubation, compounds were added into the wells and further incubated for next 24 h. H2O2 (1 mM) was added at 22nd h of incubation with compounds. H2O2 was used as a positive control. 30 min before the analysis, DCFH-DA (20 µM) was added to the wells. After incubation, cells were harvested and washed in PBS. Then, cells were centrifuged at 1500 rpm for 10 min. Medium was removed and cells were suspended in PBS. Analysis was performed on BD Accuri C6 Flow Cytometry (Becton–Dickinson).

Row | SMILES | IC50 [1] | Total apoptotic cells [2] | γ-H2AX protein level / DNA damage (in words) [3] | IC50 [4] | Increase in ROS level (DCF fluorescence) in comparison with non-treated control [5]
1 | O=C(NCCCNc1c2c(nc3ccccc13)CCCC2)c1ccccc1I [Compound 1b] | 22.4 ± 2.3 µM | 45.31% | slightly lower | 233 ± 4.87 µM | 1.98 fold
2 | O=C(NCCCCNc1c2c(nc3ccccc13)CCCC2)c1ccccc1I [Compound 1c] | 14.3 ± 1.65 µM | – | – | 244 ± 7.95 µM | –
3 | O=C(NCCCNc1c2c(nc3ccccc13)CCCC2)c1cccc(I)c1 [Compound 1e] | 11.7 ± 0.62 µM | 44.96% | strongest effect | 231 ± 5.64 µM | 1.98 fold
4 | O=C(NCCCCNc1c2c(nc3ccccc13)CCCC2)c1ccc(I)cc1 [Compound 1i] | 11.3 ± 0.89 µM | 71.98% | higher ability to damage DNA at 1/2IC50 concentration (7.44 µM) than at IC50 concentration (14.87 µM) | 234 ± 8.98 µM | 1.98 fold
